Laboratory results taken from PubChem BioAssay (NCI).
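Where inhibition never reached the appropriate level, the endpoint shown equals the highest concentration tested. Otherwise, values were interpolated linearly from a five-concentration, 48-hour dose response in 96-well plates. GI50 = concentration required for 50% inhibition of growth. TGI: total growth inhibition.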

Legend:
Experiment in all cases: inhibition of tumour cell growth, NCI panel, 48 h
SF-539 CNS = tested on: SF-539 CNS
LOX IMVI melanoma = tested on: LOX IMVI melanoma
UACC-62 melanoma = tested on: UACC-62 melanoma
HS 578T breast = tested on: HS 578T breast
BT-549 breast = tested on: BT-549 breast
HCC-2998 colon = tested on: HCC-2998 colon
MOLT-4 leukemia = tested on: MOLT-4 leukemia
MCF7 breast = tested on: MCF7 breast
OVCAR-4 ovarian = tested on: OVCAR-4 ovarian
T-47D breast = tested on: T-47D breast
NCI-H522 lung = tested on: NCI-H522 lung
MDA-MB-435 = tested on: MDA-MB-435
HOP-92 NSCLC = tested on: HOP-92 NSCLC
M14 melanoma = tested on: M14 melanoma
DU-145 prostate = tested on: DU-145 prostate
MALME-3M melanoma = tested on: MALME-3M melanoma
MDA-MB-231 breast = tested on: MDA-MB-231 breast
HL-60(TB) leukemia = tested on: HL-60(TB) leukemia
HOP-62 NSCLC = tested on: HOP-62 NSCLC
ACHN renal = tested on: ACHN renal
A498 renal = tested on: A498 renal
UO-31 renal = tested on: UO-31 renal
SK-OV-3 ovarian = tested on: SK-OV-3 ovarian
RXF 393 renal = tested on: RXF 393 renal
SF-268 CNS = tested on: SF-268 CNS
OVCAR-5 ovarian = tested on: OVCAR-5 ovarian
RPMI-8226 leukemia = tested on: RPMI-8226 leukemia
NCI-H23 lung = tested on: NCI-H23 lung
SNB-75 CNS = tested on: SNB-75 CNS
786-0 renal = tested on: 786-0 renal
U251 CNS = tested on: U251 CNS
SN12C renal = tested on: SN12C renal
CAKI-1 renal = tested on: CAKI-1 renal
OVCAR-8 ovarian = tested on: OVCAR-8 ovarian
EKVX NSCLC = tested on: EKVX NSCLC
SK-MEL-28 melanoma = tested on: SK-MEL-28 melanoma
KM12 colon = tested on: KM12 colon
HCT-116 colon = tested on: HCT-116 colon
NCI/ADR-RES ovarian = tested on: NCI/ADR-RES ovarian
UACC-257 melanoma = tested on: UACC-257 melanoma
HCT-15 colon = tested on: HCT-15 colon
SK-MEL-5 melanoma = tested on: SK-MEL-5 melanoma
OVCAR-3 ovarian = tested on: OVCAR-3 ovarian
NCI-H226 lung = tested on: NCI-H226 lung
PC-3 prostate = tested on: PC-3 prostate
HT29 colon = tested on: HT29 colon
A549 NSCLC = tested on: A549 NSCLC
TK-10 renal = tested on: TK-10 renal
SR leukemia = tested on: SR leukemia
SF-295 CNS = tested on: SF-295 CNS
K-562 leukemia = tested on: K-562 leukemia
IGROV1 ovarian = tested on: IGROV1 ovarian
CCRF-CEM leukemia = tested on: CCRF-CEM leukemia
SNB-19 CNS = tested on: SNB-19 CNS
SW-620 colon = tested on: SW-620 colon
COLO 205 colon = tested on: COLO 205 colon
NCI-H460 lung = tested on: NCI-H460 lung

COC1=CC(c2ccc[nH]2)=N/C1=C\c1[nH]c(C)c(C(=O)CCCCC(=O)NCc2ccccc2)c1C
GI50 (SF-539 CNS): 4.66 µM
TGI (SF-539 CNS): 15.8 µM
GI50 (LOX IMVI melanoma): 1.43 µM
TGI (LOX IMVI melanoma): 2.77 µM
GI50 (UACC-62 melanoma): 8.85 µM
TGI (UACC-62 melanoma): 22.8 µM
GI50 (HS 578T breast): 1.98 µM
TGI (HS 578T breast): 4.43 µM
GI50 (BT-549 breast): 2.1 µM
TGI (BT-549 breast): 7.12 µM
GI50 (HCC-2998 colon): 3.16 µM
TGI (HCC-2998 colon): 12.2 µM
GI50 (MOLT-4 leukemia): 1.09 µM
TGI (MOLT-4 leukemia): 3.09 µM
GI50 (MCF7 breast): 1.6 µM
TGI (MCF7 breast): 3.44 µM
GI50 (OVCAR-4 ovarian): 6.31 µM
TGI (OVCAR-4 ovarian): 23.4 µM
GI50 (T-47D breast): 2.34 µM
TGI (T-47D breast): 7.23 µM
GI50 (NCI-H522 lung): 1.95 µM
TGI (NCI-H522 lung): 6.09 µM
GI50 (MDA-MB-435): 1.61 µM
TGI (MDA-MB-435): 3.72 µM
GI50 (HOP-92 NSCLC): 1.65 µM
TGI (HOP-92 NSCLC): 4.63 µM
GI50 (M14 melanoma): 2.68 µM
TGI (M14 melanoma): 7.36 µM
GI50 (DU-145 prostate): 1.64 µM
TGI (DU-145 prostate): 3.53 µM
GI50 (MALME-3M melanoma): 2.56 µM
TGI (MALME-3M melanoma): 5.57 µM
GI50 (MDA-MB-231 breast): 1.61 µM
TGI (MDA-MB-231 breast): 7.56 µM
GI50 (HL-60(TB) leukemia): 2.2 µM
TGI (HL-60(TB) leukemia): 7.33 µM
GI50 (HOP-62 NSCLC): 2.87 µM
TGI (HOP-62 NSCLC): 10.2 µM
GI50 (ACHN renal): 2.49 µM
TGI (ACHN renal): 8.11 µM
GI50 (A498 renal): 15.5 µM
TGI (A498 renal): 35.3 µM
GI50 (UO-31 renal): 2.26 µM
TGI (UO-31 renal): 8.81 µM
GI50 (SK-OV-3 ovarian): 14.8 µM
TGI (SK-OV-3 ovarian): 31.1 µM
GI50 (RXF 393 renal): 1.9 µM
TGI (RXF 393 renal): 4.58 µM
GI50 (SF-268 CNS): 1.82 µM
TGI (SF-268 CNS): 6.04 µM
GI50 (OVCAR-5 ovarian): 7.18 µM
TGI (OVCAR-5 ovarian): 21.3 µM
GI50 (RPMI-8226 leukemia): 2.56 µM
TGI (RPMI-8226 leukemia): 6.52 µM
GI50 (NCI-H23 lung): 2.47 µM
TGI (NCI-H23 lung): 11 µM
GI50 (SNB-75 CNS): 3.72 µM
TGI (SNB-75 CNS): 15.1 µM
GI50 (786-0 renal): 2.4 µM
TGI (786-0 renal): 6.69 µM
GI50 (U251 CNS): 1.43 µM
TGI (U251 CNS): 2.95 µM
GI50 (SN12C renal): 3.82 µM
TGI (SN12C renal): 18.4 µM
GI50 (CAKI-1 renal): 2.54 µM
TGI (CAKI-1 renal): 13.4 µM
GI50 (OVCAR-8 ovarian): 5.85 µM
TGI (OVCAR-8 ovarian): 23.3 µM
GI50 (EKVX NSCLC): 4.2 µM
TGI (EKVX NSCLC): 18.1 µM
GI50 (SK-MEL-28 melanoma): 2.07 µM
TGI (SK-MEL-28 melanoma): 4.64 µM
GI50 (KM12 colon): 1.38 µM
TGI (KM12 colon): 3.02 µM
GI50 (HCT-116 colon): 1.51 µM
TGI (HCT-116 colon): 2.83 µM
GI50 (NCI/ADR-RES ovarian): 2.17 µM
TGI (NCI/ADR-RES ovarian): 5.36 µM
GI50 (UACC-257 melanoma): 18.6 µM
TGI (UACC-257 melanoma): 38.5 µM
GI50 (HCT-15 colon): 0.845 µM
TGI (HCT-15 colon): 2.25 µM
GI50 (SK-MEL-5 melanoma): 10.8 µM
TGI (SK-MEL-5 melanoma): 23.4 µM
GI50 (OVCAR-3 ovarian): 1.43 µM
TGI (OVCAR-3 ovarian): 2.89 µM
GI50 (NCI-H226 lung): 2.73 µM
TGI (NCI-H226 lung): 10.9 µM
GI50 (PC-3 prostate): 1.57 µM
TGI (PC-3 prostate): 3.99 µM
GI50 (HT29 colon): 0.723 µM
TGI (HT29 colon): 5.67 µM
GI50 (A549 NSCLC): 3.56 µM
TGI (A549 NSCLC): 16.9 µM
GI50 (TK-10 renal): 2.15 µM
TGI (TK-10 renal): 4.63 µM
GI50 (SR leukemia): 1.14 µM
TGI (SR leukemia): 3.3 µM
GI50 (SF-295 CNS): 1.87 µM
TGI (SF-295 CNS): 7.23 µM
GI50 (K-562 leukemia): 1.73 µM
TGI (K-562 leukemia): 4.72 µM
GI50 (IGROV1 ovarian): 3.36 µM
TGI (IGROV1 ovarian): 14.7 µM
GI50 (CCRF-CEM leukemia): 0.673 µM
TGI (CCRF-CEM leukemia): 6.98 µM
GI50 (SNB-19 CNS): 8.76 µM
TGI (SNB-19 CNS): 24 µM
GI50 (SW-620 colon): 1.06 µM
TGI (SW-620 colon): 2.58 µM
GI50 (COLO 205 colon): 2.37 µM
GI50 (NCI-H460 lung): 1.99 µM
TGI (NCI-H460 lung): 5.34 µM
